Non-standard residues stand in square brackets, D forms with d. Residues, ends and D or L forms follow the SMILES beside them. Orn = NCCC[C@H](N)C(=O)O
How the values were obtained:
[1] = test system: calreticulin (CALR) on 4T1 cells; assay: CALR exposure on the cell surface, fluorescence microscopy; format: cell-based, murine; settings: 4T1 monolayer; 8 and 16 μM; 24 h; Alexa Fluor 647 anti-CALR antibody, normalized to non-treated cells; n=2
Procedure: (§1) We performed fluorescence microscopy using an Alexa Fluor 647 anti-CALR antibody for quantifying the CALR exposure on the surface of cells. Confluent monolayer 4T1, HeLa, HepG2 and MDA-MB-231 cell cultures were incubated with GS and GS-derived peptides for 24 h followed by fixation, staining with the antibody and microscopic observation. Using the images, we calculated the total levels of the fluorescence signal per cell in each sample. […] To examine the time dependence of the CALR exposure, cytofluorimetric experiments were conducted on the MDA-MB-231 cell line (Fig. 9) using an Alexa Fluor 647 anti-CALR antibody. In this experiment, 30 min, 3 h, 6 h and 24 h were the time points for monitoring the fraction of cells expressing CALR on their surface.
(§2) The cells were seeded (10 000 cells per well for 4T1; 20 000 cells per well for HeLa and MDA-MB-231; 30 000 cells per well for HepG2) in 200 μL of appropriate medium in a 96-well black-wall transparent-bottom plate (6055302, Revvity). After 24 h incubation, the medium was aspired and 100 μL of fresh medium was added. The compounds (64, 32, 16 and 8 μM for closed photoforms; 32, 16, 8 and 4 μM for open photoforms and GS) along with the negative (1% DMSO) control were prepared in DMEM and dispensed in 100 μL per well for 24 h. Then 50 μL of 20% paraformaldehyde (28908, Thermo Fisher) was added for 15 min for fixation. […]

[2] = test system: calreticulin (CALR) on HepG2 cells; assay: as above; format: cell-based, human; settings: HepG2 monolayer; 32 μM; 24 h; Alexa Fluor 647 anti-CALR antibody, normalized to non-treated cells; n=2
Procedure: as §1, §2

[3] = test system: calreticulin (CALR) on MDA-MB-231 cells; assay: as above; format: cell-based, human; settings: MDA-MB-231 monolayer; 8 and 16 μM; 24 h; Alexa Fluor 647 anti-CALR antibody, normalized to non-treated cells; n=2
Procedure: as §1, §2

HeLa spheroids = assay: Cytotoxicity, three-dimensional (spheroid) assay; format: cell-based; settings: human
From the text: (§3) For the experiments with the three-dimensional (3D) cultures, we used a 384-well plate format and applied the protocol introduced by Sirenko et al.,[35] with a few modifications. First, we used the ultra-low adhesion plates to ensure reproducible spheroid formation. Second, we decided to co-stain the cells with calcein-AM to obtain more information on the processes occurring in spheroids upon the addition of cytolytic peptides. Calcein-AM stains metabolically active cells and helps to identify the fraction of necrotic cells that is essential for the accurate determination of the IC50 values (Fig. 3). Three time points of incubation of spheroids with the peptides (10 min, 24 h and 72 h) were chosen for the experiments. The IC50 values and the closed/open isomer activity ratios (Table 2) were calculated, as in the monolayer cell culture experiments.
(§4) Essential experimental details have been previously published by us.[79]
(§5) The cells were maintained identically to a 2D cell culture protocol. After counting, the cells were seeded in 50 μL of medium in an ultralow attachment U-bottom black-wall 384-well plate (3830, Corning). The seeding density was chosen to obtain spheroids after 48 h of incubation that are compact enough to fit into 20× objective field of view (<800–1000 μm in diameter) after incubation with compounds. We seeded 2000 cells per well for 4T1 and 1000 cells per well for HEK-293, HeLa, HepG2, LLC and MDA-MB-231. After seeding, the plate was centrifuged at 40 g for 30 s and additionally shaken at 250 rpm for 1 min to shake all the cells off the walls of a well. After 48 h, the compounds were dispensed in 20 μL of medium (500, 100, 50, 5 and 1 μM for closed peptide photoforms; 100, 50, 10, 1 and 0.5 μM for open photoforms and GS). At 10 min, 24 h and 72 h post addition of compounds, the staining solution consisting of 112.5 μM of Hoechst 33342, 4.5 μM of calcein-AM (C1430, Thermo Fisher), 13.5 μM of propidium iodide and 10% of FBS in DPBS was added in 20 μL for 2 h. The fluorescent imaging was conducted in the confocal mode with a 20× objective lens and z-stack of 12–15 images with a 10 μm step. The collected data were processed using INCarta 1.13 and analyzed using GraphPad Prism 10.

[4] = Cytotoxicity, three-dimensional (spheroid) assay; format: cell-based; settings: human, HEK-293 spheroids, calcein-AM/PI/Hoechst 33342 confocal imaging, Table S3 (with LMB033), ± SEM, n=5, read-out: IC50, cytotoxic activity, three-dimensional (spheroid) assay
From the text: as §3, §4, §5

In the case of `CC(C)C[C@@H]1NC(=O)[C@H](CCCN)NC(=O)[C@H](C(C)C)NC(=O)[C@@H]2CCCN2C(=O)[C@@H](Cc2ccccc2)NC(=O)[C@H](CC(C)C)NC(=O)[C@H](CCCN)NC(=O)[C@H](C(C)C)NC(=O)[C@@H]2CCCN2C(=O)[C@@H](Cc2ccccc2)NC1=O` [Gramicidin S, gramicidin S] (cyclo(V[Orn]L[dF]PV[Orn]L[dF]P)), the “increase of CALR exposure” value [1] is reported as 3 fold, the “enhancement in CALR exposure” value [2] is reported as 4–7 fold and the “increase of CALR exposure” value [3] is reported as 3 fold. For the same compound, the IC50 (HeLa spheroids; 10 min) was 2.9 ± 1.5 µM, the IC50 (HeLa spheroids; 24 h) was 2.9 ± 1.6 µM and the IC50 at 10 min ([4]; 10 mins incubation) was 14.3 ± 11.6 µM. The IC50 at 24 h ([4]; 24 hrs incubation) was 12.9 ± 1.1 µM and the IC50 at 72 h ([4]; 72 hrs incubation) was 9 ± 1.1 µM.
